From ChEMBL document CHEMBL1154198, “Chemical genetics of Plasmodium falciparum” (Nature, 2010) come the findings set out here.

For experiment [1], the system named is Plasmodium falciparum. Description: ST_JUDE: Plasmodium falciparum K1 EC50 (uM) as measured by SYBR green dye. It is filed as functional, organism-based.
Experiment [2] has as its system Plasmodium falciparum. Description: ST_JUDE: Plasmodium falciparum 3D7 EC50 (uM) as measured by SYBR green dye. It is filed as functional, organism-based.

The structures appear in SMILES notation.

Turning to `CCC(C)c1ccc(O)c(NC(=O)c2cncc(Br)c2)c1` (configuration not stated), the results for the EC50 in the experiment with Plasmodium falciparum [1] and in the experiment with Plasmodium falciparum [2] were 1.59 µM and 2.15 µM, respectively.
In the same order, the values of `COc1ccc(C2C(C(=O)Nc3cc(C)ccc3OC)c3ccccc3C(=O)N2C)cc1` (configuration not stated) are 3.73 µM and 2.1 µM.
Take `CCCCC(=O)NC(c1cccs1)c1cc(Cl)c2cccnc2c1O` (configuration not stated): the half-maximal effective concentration (EC50) with Plasmodium falciparum [1] and with Plasmodium falciparum [2] was more than 15 µM throughout.
For `CCOC(=O)c1cnc2ccc(OC)cc2c1Nc1ccc(N2CCN(C)CC2)cc1`, the values for the EC50 with Plasmodium falciparum [1] and in the experiment with Plasmodium falciparum [2] were 1.29 µM and 0.575 µM, respectively.
As for `Cc1ccc(C)c(Oc2c(C(F)(F)F)oc3c(CN4CCN(Cc5ccccc5)CC4)c(O)ccc3c2=O)c1`, the EC50 is 0.274 µM with Plasmodium falciparum [1] and 0.612 µM with Plasmodium falciparum [2].
As for `CCCOc1cccc(C2c3c(-c4ccccc4O)n[nH]c3C(=O)N2CCCOCC)c1` (configuration not stated), the concentration for a half-maximal effect (EC50) in the experiment on Plasmodium falciparum [1] is 7.84 µM; with Plasmodium falciparum [2], more than 15 µM.
In the same order, the values of `CCO/C(O)=C1\C(C)=NC2=C(C(=O)CC(c3ccc(OC)c(OC)c3)C2)C1c1ccc(SC)cc1` (configuration not stated) are 3.18 µM and 3.2 µM.
On the same counts, the results for `CC(=O)CCc1ccc(OCCN2CCOCC2)cc1` are more than 15 µM and more than 15 µM.
`Cc1ccc(S(=O)(=O)Nc2ccc(Nc3nc(C)cc(N4CCCC4)n3)cc2)cc1`: the 50% effective concentration (EC50) in the experiment with Plasmodium falciparum [1] was found to be 7.18 µM; in the experiment on Plasmodium falciparum [2], 0.919 µM.
In the same order, the values of `CCc1ccc(S(=O)(=O)Nc2ccc(Nc3nc(C)cc(Nc4ccc(OC)cc4)n3)cc2)cc1` are 9.28 µM and 0.577 µM.
In the same order, the values of `CCCCOc1ccc(C(=O)Nc2ccccc2Oc2ccccc2)cc1` are 1.75 µM and more than 15 µM.
As for `O=C(Nc1ccc(Cl)cc1)Nc1ccc(F)c(Cl)c1`, the values for the EC50 with Plasmodium falciparum [1] and in the experiment with Plasmodium falciparum [2] were 3.57 µM and 3.72 µM, respectively.
In the same order, the values of `COC(=O)c1sc2ccccc2c1NC(=O)c1cccc(Br)c1` are more than 15 µM and more than 15 µM.
On the same counts, the results for `Oc1c(C(c2ccc(Cl)cc2)N2CCOCC2)ccc2cccnc12` (configuration not stated) are 2.97 µM and 2.19 µM.
On the same counts, the results for `CCOc1cc2c(cc1OCC)C(c1cc(Cl)c(O)c(OCC)c1)NCC2` (configuration not stated) are 1.76 µM and 3.01 µM.
As to `C#CCN(CC=C)Cc1nc(-c2cc(OC)ccc2OC)oc1C`, the 50% effective concentration (EC50) with Plasmodium falciparum [1] and in the experiment on Plasmodium falciparum [2] was more than 15 µM throughout.
With `CCCCCCCOC(=O)c1[nH]c2c(c1C)C(=O)CC(c1ccco1)C2` (configuration not stated), the EC50 with Plasmodium falciparum [1] was 1.19 µM; in the experiment with Plasmodium falciparum [2], 2.01 µM.
Turning to `CC(C(=O)c1ccc(-c2ccccc2)cc1)[n+]1ccccc1` (configuration not stated), the EC50 with Plasmodium falciparum [1] was 4 µM; in the experiment with Plasmodium falciparum [2], 7.02 µM.
On the same counts, the results for `CCOc1ccc(-c2nonc2NC(=O)c2cccc(C)c2)cc1OCC` are 0.0832 µM and 0.0619 µM.
In the same order, the values of `CCN(CC)CCCNC(=O)C1CCN(c2nc3c(C)cc(C)cc3s2)CC1` are more than 15 µM and more than 15 µM.
On the same counts, the results for `COc1ccccc1/N=C1\C=C(NS(=O)(=O)c2ccc(Cl)cc2)c2ccccc2C1=O` are 0.267 µM and 0.268 µM.
As to `Cc1cc(N2CCCC2)nc(Nc2ccc(NS(=O)(=O)c3ccc(Cl)cc3)cc2)n1`, the EC50 with Plasmodium falciparum [1] is more than 15 µM; with Plasmodium falciparum [2], 2.12 µM.
On the same counts, the results for `O=C(c1ccco1)N(Cc1ccccc1)c1cccc([N+](=O)[O-])c1` are more than 15 µM and more than 15 µM.
In the same order, the values of `Cc1ccc(/C(O)=C/C=N/c2cc([N+](=O)[O-])ccc2O)cc1` are 1.69 µM and more than 15 µM.
In the same order, the values of `Cc1cccc(-c2c3c(=O)n(C)c(=O)n(C)c3cn2-c2cc(Cl)ccc2O)c1` are more than 15 µM and more than 15 µM.
`CCOc1ccc(-c2nonc2NC(=O)c2ccc(C)cc2)cc1OCC`: the EC50 in the experiment with Plasmodium falciparum [1] and with Plasmodium falciparum [2] was more than 15 µM in each case.
As to `O=C(Nc1cccc(C2=NCCN2)c1)Nc1cccc(C2=NCCN2)c1`, the EC50 stood at 0.23 µM in the experiment on Plasmodium falciparum [1] and 1.89 µM in the experiment with Plasmodium falciparum [2].
Turning to `CC(=O)Oc1ccc2ccccc2c1C(NC(=O)C(C)C)c1ccc(Cl)cc1` (configuration not stated), the EC50 in the experiment on Plasmodium falciparum [1] was 4.46 µM; with Plasmodium falciparum [2], 4.03 µM.
In the case of `Cc1ccc(C(=O)Nc2ccc3c(c2)N(S(=O)(=O)c2ccc(F)cc2)CCC3)cc1`, the EC50 with Plasmodium falciparum [1] and in the experiment with Plasmodium falciparum [2] was more than 15 µM throughout.
With `CCOC(=O)c1cnc2c(C(F)(F)F)cccc2c1Nc1cc(C)ccc1O`, the EC50 in the experiment with Plasmodium falciparum [1] stood at 3.09 µM; with Plasmodium falciparum [2], 2.53 µM.
In the same order, the values of `Cc1ccc(CN2CCN(c3nc4c(c(=O)[nH]c(=O)n4C)n3Cc3ccc(C)cc3)CC2)cc1` are more than 15 µM and more than 15 µM.
On the same counts, the results for `Cn1c2c(c(=N)c3c1CCC3)CCCC2` are 5.79 µM and 2.39 µM.
On the same counts, the results for `CC(=O)Oc1ccccc1C(=O)Nc1cccc(C(F)(F)F)c1` are 2.66 µM and 2.72 µM.
As for `O=[N+]([O-])c1nonc1NCn1nnc2ccccc21`, the EC50 was determined as 7.28 µM in the experiment with Plasmodium falciparum [1] and 5.07 µM in the experiment with Plasmodium falciparum [2].
In the same order, the values of `CCOC(=O)c1ccc(NC2=C(n3nnc4ccccc43)C(=O)c3ccccc3C2=O)cc1` are 0.678 µM and 3.23 µM.
Turning to `CCN(CC)CCNC(=O)c1ccc2c(c1)sc1nc(-c3ccccc3)cn12`, the EC50 with Plasmodium falciparum [1] is 1.5 µM; with Plasmodium falciparum [2], 1.03 µM.
In the same order, the values of `N=C(N)N/N=C/c1ccc(OCc2ccc(Cl)cc2Cl)cc1` are 4.27 µM and 4.9 µM.
Take `Cn1c(=O)oc2cc(S(=O)(=O)N3CCCC(C(=O)N4CCN(C(c5ccccc5)c5ccccc5)CC4)C3)ccc21` (configuration not stated): the EC50 in the experiment with Plasmodium falciparum [1] came out at 1.61 µM; in the experiment on Plasmodium falciparum [2], 3.56 µM.
On the same counts, the results for `CCC1(C)CC(CCN)(c2ccc(C)cc2)CCO1` (configuration not stated) are more than 15 µM and 4.8 µM.
On the same counts, the results for `Cc1ccc(Nc2nc(N)c3ccccc3n2)cc1C` are 3.91 µM and 1.33 µM.
In the same order, the values of `CCCCOc1cccc(C(=O)Nc2ccc(CN3CCCCC3)cc2)c1` are more than 15 µM and more than 15 µM.
Regarding `CCCCN(C)C(=O)C1c2ccccc2C(=O)N(CC(C)C)C1c1cccs1` (configuration not stated), the values for the EC50 in the experiment on Plasmodium falciparum [1] and with Plasmodium falciparum [2] were 1.74 µM and 1.52 µM, respectively.
In the same order, the values of `CCc1ccc(NC(=O)C2c3ccccc3C(=O)N(C3CCCC3)C2c2cccs2)cc1` (configuration not stated) are 1.87 µM and 1.83 µM.
Consider `C[n+]1ccccc1/C=C/c1ccc(O)cc1`, for which the concentration for a half-maximal effect (EC50) in the experiment on Plasmodium falciparum [1] was found to be 3.28 µM; in the experiment with Plasmodium falciparum [2], 3.18 µM.
On the same counts, the results for `CCc1ccc(C2C3=C(O)CC(C)(C)CC3=Nc3cc(OC)c(OC)c(OC)c32)cc1` (configuration not stated) are 4.85 µM and more than 15 µM.
In the same order, the values of `CCCCc1ccc(NC(=S)NN2CCN(C)CC2)cc1` are more than 15 µM and more than 15 µM.
In the same order, the values of `CCCCOCCCN1C(=O)CSC1c1cnccc1-c1ccc(Br)cc1` (configuration not stated) are 1.76 µM and 2.38 µM.
On to `CCN1CCN(c2cc(C)c3cc(NC(=S)NCc4cc(OC)ccc4OC)ccc3n2)CC1`, for which the 50% effective concentration (EC50) with Plasmodium falciparum [1] is 9.01 µM; in the experiment on Plasmodium falciparum [2], 3.07 µM.
On the same counts, the results for `COc1ccc(-c2nnc3c4ccccc4c(C)nn23)cc1S(=O)(=O)N1CCCCC1` are more than 15 µM and more than 15 µM.
On the same counts, the results for `CCOC(=O)C1=CN(Cc2ccc(F)cc2)C=C(C(=O)OCC)C1c1cc(OC)c(OC)c(OC)c1` are 0.521 µM and more than 15 µM.
On the same counts, the results for `Cc1cc(C)c2sc(NNC(=O)c3ccc(S(=O)(=O)N(C)C)cc3)nc2c1` are 4.89 µM and 5.94 µM.
Turning to `COc1ccc(Nc2nc(NCc3ccccc3)c3ccccc3n2)cc1`, the EC50 with Plasmodium falciparum [1] came out at 7.39 µM; in the experiment on Plasmodium falciparum [2], 1.31 µM.
As to `CCOc1ccc(CCNC(=O)Nc2ccc(F)cc2)cc1OCC`, the 50% effective concentration (EC50) in the experiment on Plasmodium falciparum [1] was more than 15 µM; in the experiment with Plasmodium falciparum [2], 4.48 µM.
In the same order, the values of `COc1ccccc1Nc1nc(NCc2ccccc2)c2ccccc2n1` are 11.8 µM and 3.97 µM.
On the same counts, the results for `CCOc1c(Br)cc(C2C(C(=O)OC)=CN(C(C)C)C=C2C(=O)OC)cc1OC` are 3.44 µM and 4.03 µM.
On the same counts, the results for `CC(C)CC(C)N1CCC(n2nccc2NC(=O)Nc2ccccc2Cl)CC1` (configuration not stated) are more than 15 µM and 8.23 µM.
In the case of `Cc1cc(Nc2ccc(C(C)C)cc2)n2ncnc2n1`, the EC50 in the experiment on Plasmodium falciparum [1] was 0.961 µM; in the experiment with Plasmodium falciparum [2], 0.502 µM.
On the same counts, the results for `COc1ccc(-c2cn3c(n2)sc2cc(C(=O)NCCCN4CCN(C)CC4)ccc23)cc1` are 6.14 µM and 2.04 µM.
On the same counts, the results for `O=C1C(Nc2ccc(I)cc2)=C(N2CCCCC2)C(=O)c2ccccc21` are 0.395 µM and 0.153 µM.
Take `COc1ccc2c(c1OC)C(=O)N1c3ccccc3N=C(c3ccc([N+](=O)[O-])cc3)CC21` (configuration not stated): the concentration for a half-maximal effect (EC50) in the experiment with Plasmodium falciparum [1] and in the experiment on Plasmodium falciparum [2] was more than 15 µM throughout.
Regarding `C=CCN1C(=S)NC2c3cc(Br)ccc3OC1(C)C2C` (configuration not stated), the 50% effective concentration (EC50) in the experiment on Plasmodium falciparum [1] stood at 3.1 µM; with Plasmodium falciparum [2], 2.58 µM.
Turning to `CCCCCCCCCn1ccc(=N)cc1`, the EC50 was determined as 0.465 µM in the experiment on Plasmodium falciparum [1] and 0.835 µM with Plasmodium falciparum [2].
With `Cc1ccc(NC(=O)CSc2nc3c(cnn3CCO)c(=O)[nH]2)cc1`, the concentration giving a half-maximal response (EC50) in the experiment on Plasmodium falciparum [1] was 1.91 µM; in the experiment on Plasmodium falciparum [2], more than 15 µM.
For the molecule `O=C(NC(c1ccc([N+](=O)[O-])cc1)c1cc(Cl)c2cccnc2c1O)c1cccnc1` (configuration not stated), the values for the concentration giving a half-maximal response (EC50) in the experiment on Plasmodium falciparum [1] and in the experiment on Plasmodium falciparum [2] were 1.52 µM and 2.51 µM, respectively.
In the same order, the values of `Oc1c(C(Nc2ccccn2)c2c(F)cccc2Cl)cc(Cl)c2cccnc12` (configuration not stated) are more than 15 µM and more than 15 µM.
In the same order, the values of `CCCN1CC=C2C(C#N)=C(N)C(C#N)(C#N)C(c3ccccc3C(F)(F)F)C2C1` (configuration not stated) are 0.479 µM and 1.12 µM.
On the same counts, the results for `CCOC(=O)c1cccc(NC(=O)CC2C(=O)N(c3ccc(Cl)cc3)C(=O)N2C2CCCC2)c1` (configuration not stated) are 2.7 µM and 1.42 µM.
Consider `CC(C)(C)C1CCc2onc(C(=O)Nc3cc(Br)ccc3O)c2C1` (configuration not stated), for which the EC50 was 0.419 µM in the experiment on Plasmodium falciparum [1] and 0.726 µM with Plasmodium falciparum [2].
In the same order, the values of `Cc1ccc(NC(=O)C2(c3ccc([N+](=O)[O-])cc3)CCCC2)cc1` are 3.82 µM and more than 15 µM.
On the same counts, the results for `Cc1c(C)n(CC(O)CNC2CCCCC2C)c2ccccc12` (configuration not stated) are 0.35 µM and 0.527 µM.
In the same order, the values of `C=C(C)CCC(C)N1CCC(N2CCC(C(=O)NCCc3ccccc3)CC2)CC1` (configuration not stated) are more than 15 µM and 4.26 µM.

For orientation: EC50 means the concentration at which the effect is half-maximal.
